# Results from patent publication US20250380701A1, “HERBICIDAL COMBINATIONS AND A METHOD FOR CONTROLLING UNDESIRED VEGETATION” (UPL Mauritius Limited, priority 2022, published 2025).
# Tested on: weedy Glycine max
# Test: Post-emergence herbicidal activity trial, efficacy on weedy Glycine max (Colby evaluation)
# Type: in vivo
# Description: The following products were used for testing the weed control efficacy of present herbicidal combinations.
# Methodology: Trials were carried out to evaluate the efficacy of the combination of L-glufosinate ammonium (glufosinate-P-ammonium) and the additional herbicides on weedy Glycine max.
# The soil used was sandy clay loam-sand: 68.0%; silt: 8.0%; clay: 24.0%.
# All treatments were in 3 replications per treatment with a spray volume of about 150 L/ha.
# The expected efficacy of a combination of L-glufosinate and the other herbicides was calculated using the well-established Colby method. Any difference between the observed and “expected” efficacy could be attributed to synergy between the two compounds.
# In the Colby method, the expected (or predicted) response of a combination of herbicides is calculated by taking the product of the observed response for each individual component of the combination when applied alone, divided by 100, and subtracting this value from the sum of the observed response for each component when applied alone. An unexpected enhancement in efficacy of the combination is then determined by comparing the observed response of the combination to the expected (or predicted) response as calculated from the observed response of each individual component alone. If the observed response of the combination is greater than the expected (or predicted) response, or stated conversely, if the difference between the observed and expected response is greater than zero, then the combination is said to be synergistic or unexpectedly effective (Colby, S. R., Weeds, 1967(15), p. 20-22). The Colby method requires only a single dose of each herbicide applied alone and the mixture of both doses. The formula used to calculate the expected efficacy (EE) which was compared with the observed efficacy (OE) to determine the efficacy of the present disclosure is explained hereinbelow:
# The expected efficacy for a combination of two active ingredients is as follows:
# wherein, • A=Observed efficacy of active ingredient A at the same concentration as used in the mixture. • B=Observed efficacy of the active ingredient B at the same concentration as used in the mixture. • C=Observed efficacy of the active ingredient C at the same concentration as used in the mixture.
# Experiments were conducted to assess the efficacy of the herbicidal combination comprising L-glufosinate ammonium and quizalofop-ethyl to control weedy Glycine max.
# The percentage efficacy was calculated after 3, 28 and 35 days of applications (DAA). The target weed was Glycine max, and the concentration of the herbicide and the results are recorded in Table 2.
# Experiments were conducted to assess the efficacy of the herbicidal combination comprising L-glufosinate ammonium and quizalofop-p-tefuryl to control the weedy Glycine max
# The percentage efficacy was calculated after 3, 28 and 35 days of applications (DAA). The target weed was weedy Glycine max, and the concentration of the herbicide and the results are recorded in Table 3.
smiles,measurement,setting,value
"C[C@@H](Oc1ccc(Oc2cnc3cc(Cl)ccc3n2)cc1)C(=O)OCC1CCCO1 (stereo partly drawn) [quizalofop-p-tefuryl, Quizalofop-p-tefuryl]",Observed efficacy (%) of quizalofop-p-tefuryl (25 g a.i./ha),"Example 2 (Table 3), 3 DAA",0%
same,Observed efficacy (%) of quizalofop-p-tefuryl (25 g a.i./ha),"Example 2 (Table 3), 28 DAA",0%
same,Observed efficacy (%) of quizalofop-p-tefuryl (25 g a.i./ha),"Example 2 (Table 3), 35 DAA",0%
CP(=O)(O)CC[C@H](N)C(=O)O.N [L-glufosinate ammonium],Observed efficacy (%) of L-glufosinate ammonium (150 g a.i./ha),"Example 1 (Table 2), 3 DAA",50%
same,Observed efficacy (%) of L-glufosinate ammonium (150 g a.i./ha),"Example 1 (Table 2), 28 DAA",40%
same,Observed efficacy (%) of L-glufosinate ammonium (150 g a.i./ha),"Example 1 (Table 2), 35 DAA",40%
same,Observed efficacy (%) of L-glufosinate ammonium (150 g a.i./ha),"Example 2 (Table 3), 3 DAA",50%
same,Observed efficacy (%) of L-glufosinate ammonium (150 g a.i./ha),"Example 2 (Table 3), 28 DAA",60%
same,Observed efficacy (%) of L-glufosinate ammonium (150 g a.i./ha),"Example 2 (Table 3), 35 DAA",55%
"CCOC(=O)C(C)Oc1ccc(Oc2cnc3cc(Cl)ccc3n2)cc1 (stereo not drawn) [quizalofop-ethyl, Quizalofop-ethyl]",Observed efficacy (%) of quizalofop-ethyl (25 g a.i./ha),"Example 1 (Table 2), 3 DAA",0%
same,Observed efficacy (%) of quizalofop-ethyl (25 g a.i./ha),"Example 1 (Table 2), 28 DAA",0%
same,Observed efficacy (%) of quizalofop-ethyl (25 g a.i./ha),"Example 1 (Table 2), 35 DAA",0%
